Some test systems named below: U251 CNS; K-562 leukemia; COLO 205 colon; CCRF-CEM leukemia; PC-3 prostate; 786-0 renal; HCT-116 colon; IGROV1 ovarian; SK-MEL-2 melanoma; SR leukemia.
Common to all, as to assay: NCI-60 cell line screen, 48 h

“And” between values parts separate entries of the source, which are not always exact repeats. Equal values may be shown once.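 Assay format: 96-well plates, 48-hour exposure. At the GI50, growth is halved. TGI: total growth inhibition.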 A value given as a limit tells only on which side of the number the result lay.

For the compound `O=C(O)C1(C(=O)O)CCC1.[NH2-].[NH2-].[Pt+2]`, the GI50 in the test with U251 CNS was 67200 nM and 162000 nM; in the test with K-562 leukemia, 142 µM and > 166 µM; with COLO 205 colon, 224000 nM and > 250000 nM; in the test on CCRF-CEM leukemia, 73.5 µM and 22.7 µM; in the test on PC-3 prostate, over 250000 nM; in the test with 786-0 renal, 111 µM and 67.9 µM. Besides, the GI50 with HCT-116 colon is 176 µM and 196 µM; with IGROV1 ovarian, 47.2 µM and 91.8 µM; in the test with SK-MEL-2 melanoma, 161 µM and > 250 µM; in the test with SR leukemia, 94.6 µM. Further, the TGI in the test with U251 CNS is 183 µM and > 250 µM; in the test with K-562 leukemia it was over 250 µM; with COLO 205 colon, over 250 µM; in the test on CCRF-CEM leukemia, over 250 µM; with PC-3 prostate, over 250 µM; in the test with 786-0 renal, 248 µM and > 250 µM. In addition, the TGI was 232 µM and > 250 µM in the test on HCT-116 colon; 130 µM and 194 µM with IGROV1 ovarian; 244 µM and > 250 µM with SK-MEL-2 melanoma; over 230 µM in the test on SR leukemia.

With `O=C(NCCCO)c1cc(Cl)ccc1O`, the GI50 in the test on U251 CNS was 1110 nM; in the test on K-562 leukemia, 0.901 µM; with COLO 205 colon, 1950 nM; in the test with CCRF-CEM leukemia, 0.728 µM; in the test on PC-3 prostate it was 2060 nM; in the test with 786-0 renal, 3.14 µM. For the same compound, the GI50 with HCT-116 colon is 1.75 µM; with IGROV1 ovarian it was 3.94 µM; in the test with SK-MEL-2 melanoma, 2.82 µM; in the test on SR leukemia, 3.24 µM. The TGI in the test on U251 CNS worked out at 12.1 µM; in the test with K-562 leukemia it was 18.4 µM; in the test with COLO 205 colon, 5.85 µM; in the test with CCRF-CEM leukemia it was 17.3 µM; in the test on PC-3 prostate, 10.2 µM; in the test with 786-0 renal, 11.8 µM. The TGI in the test on HCT-116 colon worked out at 10.5 µM; with IGROV1 ovarian, 17 µM; with SK-MEL-2 melanoma, 6.54 µM; in the test on SR leukemia, 18.2 µM.

For the compound `CCN(CC)c1ccc(C(O)C2=CC(=O)c3ccccc3C2=O)cc1` (configuration not stated), the GI50 was 1320 nM in the test on U251 CNS; 0.416 µM with K-562 leukemia; 1580 nM with COLO 205 colon; 0.31 µM in the test with CCRF-CEM leukemia; 156 nM in the test with PC-3 prostate; 1.36 µM with 786-0 renal. Also, the GI50 in the test with HCT-116 colon is 1.76 µM; with IGROV1 ovarian it was 1.53 µM; with SK-MEL-2 melanoma it was 1.57 µM; in the test with SR leukemia, 0.694 µM. In addition, the TGI was 7.34 µM with U251 CNS; 3.59 µM with COLO 205 colon; 0.959 µM in the test on PC-3 prostate; 2.65 µM with 786-0 renal; 3.14 µM in the test on HCT-116 colon; 3.07 µM in the test on IGROV1 ovarian. Moreover, the TGI is 3.71 µM in the test on SK-MEL-2 melanoma and 5.26 µM in the test with SR leukemia.

In the case of `Cc1nc2ccccc2c(/C=C/c2ccc(Cl)cc2)c1C(=O)/C=C/c1ccc(C(F)(F)F)cc1`, the GI50 in the test on U251 CNS is 264 nM; in the test on K-562 leukemia, 0.31 µM; in the test on COLO 205 colon, 1320 nM; in the test with CCRF-CEM leukemia it was 0.291 µM; in the test with PC-3 prostate, 537 nM; in the test on 786-0 renal it was 0.33 µM. In addition, the GI50 was 0.192 µM in the test on HCT-116 colon, 0.282 µM with IGROV1 ovarian, 0.627 µM in the test on SK-MEL-2 melanoma and 0.25 µM in the test on SR leukemia. Moreover, the TGI in the test with U251 CNS is 0.865 µM; with K-562 leukemia, over 100 µM; with COLO 205 colon, 3.25 µM; with CCRF-CEM leukemia it was over 100 µM; with PC-3 prostate, 2.18 µM; with 786-0 renal, 1.26 µM. In addition, the TGI with HCT-116 colon was found to be 0.652 µM; in the test with IGROV1 ovarian, 1.56 µM; with SK-MEL-2 melanoma it was 2.17 µM; in the test on SR leukemia it was 2.26 µM.

As to `COc1cc(C(=O)N2CCN(c3ncnc4ccccc34)CC2)c(N)cc1OCc1ccccc1`, the GI50 in the test with U251 CNS was 11300 nM; in the test with K-562 leukemia it was 16.1 µM; in the test on COLO 205 colon it was 5140 nM; with CCRF-CEM leukemia it was 23.8 µM; in the test on PC-3 prostate, 15400 nM; in the test with 786-0 renal, 12.9 µM. In addition, the GI50 was 10.7 µM in the test on HCT-116 colon, 17.8 µM with IGROV1 ovarian, 16.5 µM in the test with SK-MEL-2 melanoma and 4.11 µM with SR leukemia. Moreover, the TGI came out at 23.3 µM in the test with U251 CNS; 42.8 µM in the test with K-562 leukemia; 20.2 µM in the test with COLO 205 colon; 58.1 µM in the test on CCRF-CEM leukemia; 43.2 µM in the test on PC-3 prostate; 26.2 µM with 786-0 renal. Also, the TGI in the test with HCT-116 colon was determined as 22.6 µM; with IGROV1 ovarian, 41.6 µM; with SK-MEL-2 melanoma it was 41.3 µM; in the test with SR leukemia it was 15.9 µM.

Regarding `CC(=O)OC(C)(C)/C(C)=C/C(=O)O[C@H]1C(=O)O[C@@H]2C[C@H]3[C@H](C)C(=O)C(O[C@@H]4O[C@H](CO)[C@@H](O)[C@H](O)[C@H]4O)=C[C@]3(C)[C@H]3[C@@H](O)[C@H](O)[C@@]4(C(=O)O)OC[C@]32[C@@H]14`, the TGI with U251 CNS, with K-562 leukemia, in the test on COLO 205 colon, with CCRF-CEM leukemia, in the test on PC-3 prostate and with 786-0 renal was over 100 µM throughout. Also, the TGI with HCT-116 colon, in the test with IGROV1 ovarian, with SK-MEL-2 melanoma and in the test on SR leukemia was over 100 µM each time. In addition, the GI50 in the test on K-562 leukemia is 39.5 µM; in the test on COLO 205 colon, over 100000 nM; in the test on CCRF-CEM leukemia, 43.8 µM; in the test on PC-3 prostate it was over 100000 nM; with 786-0 renal, over 100 µM; in the test with HCT-116 colon, 37.5 µM. For the same compound, the results for the GI50 in the test on IGROV1 ovarian, in the test with SK-MEL-2 melanoma and in the test with SR leukemia were over 100 µM, over 100 µM and 48.5 µM, respectively.

With `CN(C)CCNC(=O)c1cccc(N(C)C(=O)c2ccccc2)c1[N+](=O)[O-]`, the TGI in the test on U251 CNS is over 100 µM; with K-562 leukemia, over 100 µM; in the test with COLO 205 colon it was over 10 µM; in the test with CCRF-CEM leukemia, over 100 µM; with PC-3 prostate, over 100 µM; in the test on 786-0 renal, over 100 µM. Besides, the TGI in the test with HCT-116 colon, in the test on IGROV1 ovarian, in the test on SK-MEL-2 melanoma and in the test with SR leukemia was over 100 µM throughout.

Regarding `Cc1nc(-c2cn3c(n2)-c2ccc(-c4cnn(C(C)(C)C(N)=O)c4)cc2OCC3)n(C(C)C)n1`, the GI50 is 680 nM and 1510 nM with U251 CNS; 8.86 µM with K-562 leukemia; 109 nM and 203 nM in the test with COLO 205 colon; 0.338 µM and 0.765 µM with CCRF-CEM leukemia; 249 nM and 374 nM in the test on PC-3 prostate; 1.05 µM and 0.747 µM in the test on 786-0 renal. The GI50 in the test on HCT-116 colon was 1.2 µM and 0.399 µM; in the test with IGROV1 ovarian, < 0.0106 µM and 0.00612 µM; with SK-MEL-2 melanoma, 4.25 µM and 4.74 µM; with SR leukemia, 4.97 µM and 8.69 µM. Further, the TGI was 25.4 µM and > 10 µM in the test on U251 CNS; over 75.7 µM in the test with K-562 leukemia; 16.6 µM and > 10 µM in the test on COLO 205 colon; 27.8 µM and > 10 µM in the test with CCRF-CEM leukemia; over 75.3 µM in the test on PC-3 prostate; over 100 µM with 786-0 renal. Further, the TGI in the test with HCT-116 colon is 23.4 µM and > 10 µM; in the test with IGROV1 ovarian, 0.0829 µM and 0.0677 µM; with SK-MEL-2 melanoma it was 24.2 µM and > 10 µM; in the test on SR leukemia it was 26.1 µM and > 10 µM.

With `N=c1ccn(O)cc1/C=C1/C(=O)Nc2ccccc21`, the GI50 in the test with U251 CNS was over 100000 nM; in the test with K-562 leukemia, over 100 µM; in the test on COLO 205 colon, over 100000 nM; with CCRF-CEM leukemia, over 100 µM; in the test on PC-3 prostate it was over 100000 nM; in the test with 786-0 renal, over 100 µM. Besides, the GI50 in the test with HCT-116 colon, with IGROV1 ovarian, in the test with SK-MEL-2 melanoma and in the test on SR leukemia was over 100 µM in each case. Also, the TGI in the test on U251 CNS, in the test with K-562 leukemia, in the test with COLO 205 colon, in the test on CCRF-CEM leukemia, with PC-3 prostate and in the test on 786-0 renal was over 100 µM each time. The TGI in the test with HCT-116 colon, in the test on IGROV1 ovarian, in the test with SK-MEL-2 melanoma and in the test on SR leukemia was over 100 µM each time.

In the case of `[N-]=[N+]=NCCCCCC(=O)OC(C(=O)c1ccccc1)c1cccc(OCC(=O)NCCOCCOCCNC(=O)CCCC[C@@H]2SC[C@@H]3NC(=O)N[C@@H]32)c1` (some centres not stated), the GI50 with U251 CNS was over 100000 nM; with K-562 leukemia, 62.9 µM; with COLO 205 colon, over 100000 nM; with CCRF-CEM leukemia it was 52.2 µM; with PC-3 prostate, over 100000 nM; in the test on 786-0 renal, over 100 µM. In addition, the GI50 with HCT-116 colon was 67.2 µM; in the test with IGROV1 ovarian it was over 100 µM; with SK-MEL-2 melanoma, over 100 µM; in the test with SR leukemia, 22.6 µM. Further, the TGI in the test with U251 CNS, in the test with K-562 leukemia, with COLO 205 colon, in the test with CCRF-CEM leukemia, in the test on PC-3 prostate and with 786-0 renal was over 100 µM throughout. Besides, the TGI in the test on HCT-116 colon was over 100 µM; with IGROV1 ovarian, over 100 µM; in the test with SK-MEL-2 melanoma, over 100 µM; in the test with SR leukemia it was 60 µM.

The values above are taken from PubChem BioAssay (NCI).
